Consider 17 molecules from patent US9758491B2, “Molecules having pesticidal utility, and intermediates, compositions, and processes, related thereto” (priority 2015, dated 2017).

The mortality is the percentage killed.

Holding throughout (assay type): in vivo
Data set [1] has as its system Yellow Fever Mosquito (Aedes aegypti, AEDSAE). Description: Bioassay on Yellow Fever Mosquito (YFM) larvae, 96-well plate. Particulars: 4000 ppm DMSO master solution diluted, about 1 day-old larvae, room temperature, scored after 3 days. How it is done: Certain molecules disclosed in this document were tested against YFM using procedures described in the following paragraph. In the reporting of the results, the “YFM Rating Table” was used (See Table Section).
Master plates containing 400 μg of a molecule dissolved in 100 μL of dimethyl sulfoxide (DMSO) (equivalent to a 4000 ppm solution) are used. A master plate of assembled molecules contains 15 μL per well. To this plate, 135 μL of a 90:10 water/acetone mixture is added to each well. A robot (Biomek® NXP Laboratory Automation Workstation) is programmed to dispense 15 μL aspirations from the master plate into an empty 96-well shallow plate (“daughter” plate). There are 6 reps (“daughter” plates) created per master. The created “daughter” plates are then immediately infested with YFM larvae.
The day before plates are to be treated, mosquito eggs are placed in Millipore water containing liver powder to begin hatching (4 g into 400 mL). After the “daughter” plates are created using the robot, they are infested with 220 μL of the liver powder/larval mosquito mixture (about 1 day-old larvae). After plates are infested with mosquito larvae, a non-evaporative lid is used to cover the plate to reduce drying. Plates are held at room temperature for 3 days prior to grading. After 3 days, each well is observed and scored based on mortality. The results are indicated in the table entitled “Table ABC: Biological Results” (See Table Section).

In data set [2] the test system is Cabbage Looper (Trichoplusia ni, TRIPNI). Description: Bioassay on Cabbage Looper (CL), 128-well diet tray assay. To be noted: 168 h, 50 μg/cm^2 on artificial diet, second instar larvae, 25° C., five to seven days, average of eight wells, read-out: CL rating, % Control (or Mortality). On the procedure:
(§1) Certain molecules disclosed in this document were tested against BAW and CL using procedures described in the following examples. In the reporting of the results, the “BAW & CL Rating Table” was used (See Table Section).
Bioassays on CL were conducted using a 128-well diet tray assay. One to five second instar CL larvae were placed in each well (3 mL) of the diet tray that had been previously filled with 1 mL of artificial diet to which 50 μg/cm^2 of the test molecule (dissolved in 50 μL of 90:10 acetone-water mixture) had been applied (to each of eight wells) and then allowed to dry. Trays were covered with a clear self-adhesive cover, vented to allow gas exchange, and held at 25° C., 14:10 light-dark for five to seven days. Percent mortality was recorded for the larvae in each well; activity in the eight wells was then averaged. The results are indicated in the table entitled “Table ABC: Biological Results” (See Table Section).

Data set [3] has as its system Beet Armyworm (Spodoptera exigua, LAPHEG). Briefly: Bioassay on Beet Armyworm (BAW), 128-well diet tray assay. Particulars: 168 h, 50 μg/cm^2 on artificial diet, second instar larvae, 25° C., five to seven days, average of eight wells, read-out: BAW rating, % Control (or Mortality). How it is done: as §1
Bioassays on BAW were conducted using a 128-well diet tray assay. One to five second instar BAW larvae were placed in each well (3 mL) of the diet tray that had been previously filled with 1 mL of artificial diet to which 50 μg/cm^2 of the test molecule (dissolved in 50 μL of 90:10 acetone-water mixture) had been applied (to each of eight wells) and then allowed to dry. Trays were covered with a clear self-adhesive cover, vented to allow gas exchange, and held at 25° C., 14:10 light-dark for five to seven days. Percent mortality was recorded for the larvae in each well; activity in the eight wells was then averaged. The results are indicated in the table entitled “Table ABC: Biological Results” (See Table Section).

Take `N/C(=N\C(=O)Nc1ccc(-c2ncn(-c3ccc(OC(F)(F)F)cc3)n2)cc1)Nc1ccccc1-c1ccccc1` [F1, (1E)-1-[Amino-(2-phenylanilino)methylene]-3-[4-[1-[4-(trifluoromethoxy)phenyl]-1H-1,2,4-triazol-3-yl]phenyl]urea]: the “YFM rating, % Control (or Mortality)” value in data set [1] is “A (80-100)”. The mortality at 50 µg/cm2 in data set [2] and in data set [3] was 50 to 100% throughout.

Consider `N/C(=N\C(=O)Nc1ccc(-c2ncn(-c3ccc(OC(F)(F)F)cc3)n2)cc1)Nc1ccccc1Cc1ccccc1` [F2, (1E)-1-[Amino-(2-benzylanilino)methylene]-3-[4-[1-[4-(trifluoromethoxy)phenyl]-1H-1,2,4-triazol-3-yl]phenyl]urea], for which the “YFM rating, % Control (or Mortality)” value in data set [1] is on record as “A (80-100)”. For the same molecule, the mortality at 50 µg/cm2 in data set [2] and in data set [3] was 50 to 100% each time.

On to `CCc1ccccc1N/C(N)=N/C(=O)Nc1ccc(-c2ncn(-c3ccc(OC(F)(F)F)cc3)n2)cc1` [F3, (1E)-1-[Amino-(2-ethylanilino)methylene]-3-[4-[1-[4-(trifluoromethoxy)phenyl]-1H-1,2,4-triazol-3-yl]phenyl]urea], for which, in data set [1], the “YFM rating, % Control (or Mortality)” value was “A (80-100)”. Moreover, the mortality at 50 µg/cm2 in data set [2] and in data set [3] was 50 to 100% in each case.

For `N/C(=N\C(=O)Nc1ccc(-c2ncn(-c3ccc(OC(F)(F)F)cc3)n2)cc1)Nc1ccccc1` [F4, (1E)-1-[amino(anilino)methylene]-3-[4-[1-[4-(trifluoromethoxy)phenyl]-1H-1,2,4-triazol-3-yl]phenyl]urea], the “YFM rating, % Control (or Mortality)” value in data set [1] is recorded as “A (80-100)”. Also, the mortality at 50 µg/cm2 in data set [2] and in data set [3] was 50 to 100% in each case.

For the molecule `Cc1ccccc1N/C(N)=N/C(=O)Nc1ccc(-c2ncn(-c3ccc(OC(F)(F)F)cc3)n2)cc1` [F5, (1E)-1-[Amino-(2-methylanilino)methylene]-3-[4-[1-[4-(trifluoromethoxy)phenyl]-1H-1,2,4-triazol-3-yl]phenyl]urea], the “YFM rating, % Control (or Mortality)” value in data set [1] is given as “A (80-100)”. Further, the mortality at 50 µg/cm2 in data set [2] and in data set [3] was 50 to 100% in each case.

`CCCc1ccccc1N/C(N)=N/C(=O)Nc1ccc(-c2ncn(-c3ccc(OC(F)(F)F)cc3)n2)cc1` [F6, (1E)-1-[Amino-(2-propylanilino)methylene]-3-[4-[1-[4-(trifluoromethoxy)phenyl]-1H-1,2,4-triazol-3-yl]phenyl]urea]: the “YFM rating, % Control (or Mortality)” value in data set [1] is recorded as “A (80-100)”. The mortality at 50 µg/cm2 in data set [2] and in data set [3] was 50 to 100% in each case.

On to `Cc1ccc(C)c(N/C(N)=N/C(=O)Nc2ccc(-c3ncn(-c4ccc(OC(F)(F)F)cc4)n3)cc2)c1` [F7, (1E)-1-[Amino-(2,5-dimethylanilino)methylene]-3-[4-[1-[4-(trifluoromethoxy)phenyl]-1H-1,2,4-triazol-3-yl]phenyl]urea], for which the “YFM rating, % Control (or Mortality)” value in data set [1] is reported as “A (80-100)”. The mortality at 50 µg/cm2 in data set [2] and in data set [3] was 50 to 100% in each case.

As to `Cc1ccc(N/C(N)=N/C(=O)Nc2ccc(-c3ncn(-c4ccc(OC(F)(F)F)cc4)n3)cc2)c(C)c1` [F8, (1E)-1-[Amino-(2,4-dimethylanilino)methylene]-3-[4-[1-[4-(trifluoromethoxy)phenyl]-1H-1,2,4-triazol-3-yl]phenyl]urea], the “YFM rating, % Control (or Mortality)” value in data set [1] is given as “A (80-100)”. Moreover, the mortality at 50 µg/cm2 in data set [2] and in data set [3] was 50 to 100% throughout.

`COc1ccc(N/C(N)=N/C(=O)Nc2ccc(-c3ncn(-c4ccc(OC(F)(F)F)cc4)n3)cc2)c(C)c1` [F9, (1E)-1-[Amino-(4-methoxy-2-methyl-anilino)methylene]-3-[4-[1-[4-(trifluoromethoxy)phenyl]-1H-1,2,4-triazol-3-yl]phenyl]urea]: the “YFM rating, % Control (or Mortality)” value in data set [1] is on record as “A (80-100)”. The mortality at 50 µg/cm2 in data set [2] and in data set [3] was 50 to 100% each time.

Consider `CC(C)c1ccccc1N/C(N)=N/C(=O)Nc1ccc(-c2ncn(-c3ccc(OC(F)(F)F)cc3)n2)cc1` [F10, (1E)-1-[Amino-(2-isopropylanilino)methylene]-3-[4-[1-[4-(trifluoromethoxy)phenyl]-1H-1,2,4-triazol-3-yl]phenyl]urea], for which, in data set [1], the “YFM rating, % Control (or Mortality)” value is “A (80-100)”. Moreover, the mortality at 50 µg/cm2 in data set [2] and in data set [3] was 50 to 100% throughout.

Regarding `Cc1cccc(C)c1N/C(N)=N/C(=O)Nc1ccc(-c2ncn(-c3ccc(OC(F)(F)F)cc3)n2)cc1` [F11, (1E)-1-[amino-(2,6-dimethylanilino)methylene]-3-[4-[1-[4-(trifluoromethoxy)phenyl]-1H-1,2,4-triazol-3-yl]phenyl]urea], the mortality at 50 µg/cm2 in data set [3] lay within 50 to 100%.

On to `Cc1cc(Cl)ccc1N1CCN/C1=N\C(=O)Nc1ccc(-c2ncn(-c3ccc(OC(F)(F)F)cc3)n2)cc1` [F12, (E)-1-(1-(4-Chloro-2-methylphenyl)imidazolidin-2-ylidene)-3-(4-(1-(4-(trifluoromethoxy)phenyl)-1H-1,2,4-triazol-3-yl)phenyl)urea], for which, in data set [1], the “YFM rating, % Control (or Mortality)” value was “D (No activity noticed in this bioassay)”. In addition, the mortality at 50 µg/cm2 in data set [2] is 50 to 100%; in data set [3], 0 to 50%.

As to `Cc1ccc(F)cc1N1CCN/C1=N\C(=O)Nc1ccc(-c2ncn(-c3ccc(OC(F)(F)F)cc3)n2)cc1` [F13, (E)-1-(1-(5-Fluoro-2-methylphenyl)imidazolidin-2-ylidene)-3-(4-(1-(4-(trifluoromethoxy)phenyl)-1H-1,2,4-triazol-3-yl)phenyl)urea], in data set [1], the “YFM rating, % Control (or Mortality)” value is reported as “D (No activity noticed in this bioassay)”. In addition, the mortality at 50 µg/cm2 in data set [2] and in data set [3] was 50 to 100% each time.

Turning to `CCc1ccccc1N1CCN/C1=N\C(=O)Nc1ccc(-c2ncn(-c3ccc(OC(F)(F)F)cc3)n2)cc1` [F14, (E)-1-(1-(2-Ethylphenyl)imidazolidin-2-ylidene)-3-(4-(1-(4-(trifluoromethoxy)phenyl)-1H-1,2,4-triazol-3-yl)phenyl)urea], in data set [1], the “YFM rating, % Control (or Mortality)” value is on record as “A (80-100)”. The mortality at 50 µg/cm2 in data set [2] and in data set [3] was 50 to 100% each time.

For the molecule `Cc1ccc(N2CCN/C2=N\C(=O)Nc2ccc(-c3ncn(-c4ccc(OC(F)(F)F)cc4)n3)cc2)c(C)c1` [F15, (E)-1-(1-(2.4-dimethylphenyl)imidazolidin-2-ylidene)-3-(4-(1-(4-(trifluoromethoxy)phenyl)-1H-1,2,4-triazol-3-yl)phenyl)urea], the “YFM rating, % Control (or Mortality)” value in data set [1] was “A (80-100)”. Moreover, the mortality at 50 µg/cm2 in data set [2] and in data set [3] was 50 to 100% in each case.

For `O=C(/N=C1\NCCN1c1ccccc1)Nc1ccc(-c2ncn(-c3ccc(OC(F)(F)F)cc3)n2)cc1` [F16, (E)-1-(1-Phenylimidazolidin-2-ylidene)-3-(4-(1-(4-(trifluoromethoxy)phenyl)-1H-1,2,4-triazol-3-yl)phenyl)urea], in data set [1], the “YFM rating, % Control (or Mortality)” value was “A (80-100)”. The mortality at 50 µg/cm2 in data set [2] and in data set [3] was 50 to 100% each time.

For the molecule `Cc1cc(C)c(N2CCN/C2=N\C(=O)Nc2ccc(-c3ncn(-c4ccc(OC(F)(F)F)cc4)n3)cc2)c(C)c1` [F17, (E)-1-(1-Mesitylimidazolidin-2-ylidene)-3-(4-(1-(4-(trifluoromethoxy)phenyl)-1H-1,2,4-triazol-3-yl)phenyl)urea], the “YFM rating, % Control (or Mortality)” value in data set [1] was “A (80-100)”. In addition, the mortality at 50 µg/cm2 in data set [2] and in data set [3] was 50 to 100% in each case.
